This is an account of results in US8546397B2, “DNA methylation inhibitors” (The Ohio State University Research Foundation, priority 2010, dated 2013).

SMILES strings stand for the structures. Entries after “also recorded” stand apart in the source; their conditions may differ. Where two headings read alike, the source gives them in different places.

The test system of data set [1] is EGFP expression in MCF7 cells. Nature of the data set: GFP ELISA of EGFP expression in the two-component reporter system. The format is cell-based. As for the experimental part: (§1) Cell culture and drug treatment. […] 5-Aza and procainamide were purchased from Sigma-Aldrich. […] Control cells received DMSO vehicle.
ELISA. Enzyme-linked immunosorbent assay (ELISA) was performed using the GFP ELISA kit (Cell Biolabs, San Diego, Calif.) according to the manufacture's instruction.

The test system of data set [2] is EGFP expression in MCF7 cells. Nature of the data set: Western blot analysis of EGFP expression. The format is cell-based. Particulars: 7.5 μM, 5 days. As to the method:
as §1
Western blotting. Equal amounts of protein in cell lysates were separated in 10% SDS polyacrylamide gels and then transblotted to nitrocellulose membranes. After blocking with non-fat milk, the membrane was washed and incubated with antibodies against GFP (Abeam) or (β-actin (Sigma-Aldrich). The membrane was washed, and then incubated with anti-rabbit immunoglobulin G-horseradish peroxidase. After final wash, the proteins were visualized by enhanced chemiluminescence. Immunoblotting data were analyzed by NIH Image.
In another set of experiment, cells were treated with 7.5 μM of candidate drugs for 5 days, then the cell lysates were harvested and subjected to Western blot. […] The inconsistence between the Western blot result versus the ELISA/images is not immediately clear. Results obtained from ELISA and Western blot confirmed that IM25 is an effective demethylation agent in inhibiting EGFP expression.

Another data set concerns Trip10 promoter. Nature of the data set: Methylation-specific PCR (MSP) of Trip10. The format is cell-based. Particulars: MCF7 cells, 7.5 or 30 μM, 5 days of treatment. As for the experimental part: as §1
Bisulfite conversion. Genomic DNA (0.5 μg) was bisulfite-converted by the EZ DNA Methylation Kit (Zymo) by following the manufacturer's instructions.
qMSP. Bisulfite converted DNAs were PCR-amplified by using appropriate PCR primers. Universal methylated DNAs (Millipore) were used as positive control. Col2A1 was used as a loading control and to amplify the serial diluted (1/10, 1/100 and 1/1000) bisulfite-converted universal methylated DNAs to generate the standard curve for quantization in real time PCR machine (Bio-Rad, iQ5). The methylation percentage was calculated as [(Intensity of Amplifications by Trip10 MSP primer set)×100]/(Intensity of Amplifications by Col2A1 MSP primer set) (%). The qMSP was performed in a 25 μL, of reaction mixture containing 4 μL of template (bisulfate treated DNA), 2 μL of primer pair (2.5 μM), 12.5 μL of 2× reaction buffer (SYBR Green real time PCR Master Mix, Toyobo), and 6.5 μL of H2O.

For the next data set, the system named is GSTp1. Description: Methylation-specific PCR (MSP) of GSTp1. Particulars: MCF7 cells, 7.5 or 30 μM, 5 days of treatment. It is filed as cell-based.
Data set [3] relates to genome-wide methylation in MCF7 cells. Description: Differential Methylation Hybridization (DMH) array, genome-wide methylation. The format is cell-based. As to the method:
Differential Methylation Hybridization (DMH) Array. DMH was performed according to a reported procedure. Yan et al., J Nutr, 132(8 Suppl): p. 2430S-2434S (2002). Amplicons prepared from control (vehicle-treated) MCF7 cells were labeled with Cy5 and the amplicons prepared from drug-treated cells were labeled with Cy3. Labeled DNAs were co-hybridized onto 244K Agilent promoter array. Array hybridization results were normalized with LOWESS and a cutoff of 4 folds was used.
Statistics. ELISA and MTT results were analyzed by F-test. Significant demethylated loci were confirmed by ANOVA from DMH results. Linear regression was used to deduce the global methylation states before and after the demethylation agent treatment.

Data set [4] has as its system Trip10 promoter methylation (EGFP expression) in MCF7 cells. Conditions: for inhibition of EGFP expression (DNA demethylation) in library screening: each compound at 7.5 μM, MCF7 reporter cells; for EGFP expression levels relative to DMSO control: transfected MCF7 cells, different concentrations, 5-day treatment, fluorescence microscopy.
In data set [5] the test system is MCF7 cells.
Procedure: (§2) MCF7 breast cancer cells, obtained from American Type Culture Collection, were grown in Minimal Essential Medium (MEM; Invitrogen), supplemented with 10% FBS, 2 mM L-glutamine, and 100 μg/ml penicillin/streptomycin. Cells were cultured at 37° C. in a humidified incubator containing 5% CO2. Medium changes were performed twice weekly and cell passages were performed at 90% confluence. To maintain the two-component constructs in MCF7 cells, 200 μg/mL of hygromycin B (Invitrogen) and 500 μg/mL of Geneticin (G418, Calbiochem) were included in culture medium. 5-Aza and procainamide were purchased from Sigma-Aldrich. Compounds being tested were dissolved in DMSO as stock solutions, and added to culture medium with final DMSO concentrations of 0.3% and 1.2% (v/v) for 7.5 μM and 30 μM of testing drugs, respectively. Control cells received DMSO vehicle. During the 5-day treatment period, medium was changed on the third day of treatment along with the addition of 17β-estradiol (E2, 10 ng/ml).
(§3) Cell viability was assessed using MTT [3-(4,5-dimethylthiazol-2-yl)-2,5-diphenyl-2H-tetrazolium bromide, Sigma-Aldrich) in six replicates. MCF7 cells were seeded at 4,000 cells per well in 96-well plates, and treated with test agents at different concentrations. […] Reduced MTT was solubilized in 200 μl/well of DMSO for determination of absorbance of 595 nm using a microplate reader.
Another data set has as its system cancer cell growth. Conditions: Lee et al., J. Biol. Chem. 280 (2005); cited from earlier work.
Data set [6] relates to MCF7 cells. Description: MTT cell viability assay. Particulars: 5-day treatment, dose range.
Procedure: as §2, §3

Take `COc1ccc(S(=O)(=O)N2CCNCC2)cc1OC` [IM25]: the “demethylation potency in terms of inhibiting the EGFP expression” value in data set [1] was “greater demethylation potency than 5-Aza”. The “protein level of EGFP” value in data set [2] was “substantially suppressed”. Moreover, the “methylation level of Trip10” value in the data set with Trip10 promoter is “greatest potency in facilitating the demethylation of both Trip10 and GSTp1; also recorded: weaker effect in demethylating Trip10 promoter”. The “methylation level of GSTp1” value in the data set on GSTp1 is “greatest potency in facilitating the demethylation of both Trip10 and GSTp1; also recorded: significantly reduced the methylation level of GSTp1”. Also, the “global (genome-wide) demethylation” value in [3] (MCF7 cells, 7.5 μM) is given as “able to cause global demethylation in MCF7 cells”. Also, the “more demethylated loci than after 5-Aza treatment” value in [3] (out of 244K target loci in Agilent array, significant by ANOVA) was 5,506 loci. Moreover, in data set [4], the “inhibition of EGFP expression (DNA demethylation) in library screening” value is recorded as “high activity”.

In the case of `Nc1ncn([C@H]2C[C@H](O)[C@@H](CO)O2)c(=O)n1` [Compound 5-Aza, 5-aza-2′-deoxycytidine], in the data set with Trip10 promoter, the “methylation level of Trip10” value is given as “weaker effect in demethylating Trip10 promoter”. In addition, in the data set on GSTp1, the “methylation level of GSTp1” value was “significantly reduced the methylation level of GSTp1”. Also, in data set [4], the “morphological changes, light microscopy (Vis)” value is “did not cause morphological changes” and the “EGFP expression levels relative to DMSO control” value is listed as “dose-dependent, repressive effects on EGFP expression levels”. The “suppression of MCF7 cell viability” value in the data set on MCF7 cells [5] was “did not cause morphological changes [light microscopy (Vis)] or suppression of cell viability”.

Turning to `O=S(=O)(c1ccc(Br)cc1)N1CCNCC1` [IM9], the “protein level of EGFP” value in data set [2] was “significantly inhibited”.

As to `COc1ccc(O)c(C(C)=O)c1` [CI-4-1], the “methylation level of Trip10” value in the data set on Trip10 promoter is “decreases the methylation level of both genes, but to a lesser extent; also recorded: weaker effect in demethylating Trip10 promoter”. For the same compound, the “methylation level of GSTp1” value with GSTp1 is given as “decreases the methylation level of both genes, but to a lesser extent; also recorded: significantly reduced the methylation level of GSTp1”. The “inhibition of EGFP expression (DNA demethylation) in library screening” value in [4] is reported as “high activity”.

For the compound `CCN(CC)CCNC(=O)c1ccc(N)cc1` [procainamide], the “methylation level of Trip10” value with Trip10 promoter was “weaker effect in demethylating Trip10 promoter”. Also, the “methylation level of GSTp1” value in the data set on GSTp1 is on record as “significantly reduced the methylation level of GSTp1”. In addition, in [4], the “morphological changes, light microscopy (Vis)” value is on record as “did not cause morphological changes” and the “EGFP expression levels relative to DMSO control” value is on record as “dose-dependent, repressive effects on EGFP expression levels”. Further, the “concentration required to be effective in DNA demethylation in suppressing cancer cell growth” value with cancer cell growth is not below 50 µM. Also, in the data set with MCF7 cells [6], the “suppression of MCF7 cell viability” value was “did not cause morphological changes [light microscopy (Vis)] or suppression of cell viability”.
